For orientation: IC50 means the point on the concentration scale where inhibition reaches its midpoint. Read a high IC50 as lower potency. What is called Ki is the equilibrium dissociation constant of an inhibitor or competing ligand from its target.

Assay [1] relates to phosphorylation of Akt at Serine 473. In words: pAkt AlphaScreen (U87 cell). It counts as cell-based. As to conditions: Homo sapiens, U-87 MG; U87 MG cells, pAkt Ser473; average. An outline of the steps: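 U87 MG cells (5K per well, plated overnight) were exposed to compound for two hours at 37° C, 25 μM down to 11.9 pM in 0.5% DMSO. After lysis, phospho-Akt Ser473 was measured by SureFire AlphaScreen following overnight room-temperature incubation, and IC50 was derived from percent of control.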

Assay [2] concerns the target T1, PI3Kα (Homo sapiens, UniProt P42336).
T1 construct: Full length p110 subunits of PI3K α, β and δ, N-terminally labeled with polyHis tag; polyHis (N); made in house; host or cells: Sf9 insect cells (baculovirus)
Nature of the assay: In vitro PI3K AlphaScreen assay. The assay is classed as biochemical. Particulars: average if run more than once. In general terms: Bead proximity is the source of the signal in Alpha formats.

In assay [3] the target is T2, mTOR (Homo sapiens, UniProt P42345).
T2 construct: purchased Invitrogen (Carlsbad, Calif.)
T2 sequence (P42345 1360-2549 limits assumed): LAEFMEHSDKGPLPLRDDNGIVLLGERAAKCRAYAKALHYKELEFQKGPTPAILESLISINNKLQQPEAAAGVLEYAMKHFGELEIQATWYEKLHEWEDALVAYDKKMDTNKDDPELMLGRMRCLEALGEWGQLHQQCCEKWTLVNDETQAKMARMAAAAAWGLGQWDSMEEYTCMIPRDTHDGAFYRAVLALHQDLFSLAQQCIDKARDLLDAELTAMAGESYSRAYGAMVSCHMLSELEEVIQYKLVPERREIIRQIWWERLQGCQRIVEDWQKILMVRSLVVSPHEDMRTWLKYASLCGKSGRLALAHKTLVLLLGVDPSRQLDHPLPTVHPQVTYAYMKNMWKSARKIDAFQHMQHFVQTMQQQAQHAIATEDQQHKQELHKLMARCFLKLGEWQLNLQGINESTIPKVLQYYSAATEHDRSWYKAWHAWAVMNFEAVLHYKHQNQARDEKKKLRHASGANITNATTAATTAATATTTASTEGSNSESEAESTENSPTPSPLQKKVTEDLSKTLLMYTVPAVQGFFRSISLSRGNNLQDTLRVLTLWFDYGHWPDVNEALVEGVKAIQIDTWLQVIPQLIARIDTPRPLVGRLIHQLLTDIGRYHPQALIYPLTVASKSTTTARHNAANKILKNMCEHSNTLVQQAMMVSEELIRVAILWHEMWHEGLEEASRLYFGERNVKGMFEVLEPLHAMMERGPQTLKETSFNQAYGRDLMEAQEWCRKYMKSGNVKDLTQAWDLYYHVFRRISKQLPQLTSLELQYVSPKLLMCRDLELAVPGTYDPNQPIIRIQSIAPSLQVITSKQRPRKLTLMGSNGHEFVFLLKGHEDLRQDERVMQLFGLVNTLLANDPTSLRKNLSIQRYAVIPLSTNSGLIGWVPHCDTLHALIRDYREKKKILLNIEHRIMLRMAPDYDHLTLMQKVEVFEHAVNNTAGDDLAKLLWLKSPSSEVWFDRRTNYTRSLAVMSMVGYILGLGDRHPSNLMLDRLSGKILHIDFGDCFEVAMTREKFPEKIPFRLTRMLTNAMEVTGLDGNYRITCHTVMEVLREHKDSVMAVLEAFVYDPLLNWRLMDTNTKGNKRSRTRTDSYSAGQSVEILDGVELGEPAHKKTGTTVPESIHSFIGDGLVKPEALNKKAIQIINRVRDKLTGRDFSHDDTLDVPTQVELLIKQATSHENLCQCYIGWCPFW
In words: In vitro mTOR assay (Lanthascreen). Particulars: average if run more than once. It counts as biochemical. Summed up: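 mTOR activity measured by TR-FRET as Thr46 phosphorylation of GFP-4E-BP1, detected with Tb-labelled anti-phospho-4E-BP1 [T46] antibody after EDTA stop. Final 50 ng/mL mTOR, 400 nM GFP-4E-BP1, 7 μM ATP in HEPES pH 7.5 with 10 mM MnCl2; 1 h, room temperature. 10-point 1:3 compound series.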
A general note: Time-resolved FRET reads energy transfer from a long-lived donor to a nearby acceptor.

T1 sequence (P42336 whole entry): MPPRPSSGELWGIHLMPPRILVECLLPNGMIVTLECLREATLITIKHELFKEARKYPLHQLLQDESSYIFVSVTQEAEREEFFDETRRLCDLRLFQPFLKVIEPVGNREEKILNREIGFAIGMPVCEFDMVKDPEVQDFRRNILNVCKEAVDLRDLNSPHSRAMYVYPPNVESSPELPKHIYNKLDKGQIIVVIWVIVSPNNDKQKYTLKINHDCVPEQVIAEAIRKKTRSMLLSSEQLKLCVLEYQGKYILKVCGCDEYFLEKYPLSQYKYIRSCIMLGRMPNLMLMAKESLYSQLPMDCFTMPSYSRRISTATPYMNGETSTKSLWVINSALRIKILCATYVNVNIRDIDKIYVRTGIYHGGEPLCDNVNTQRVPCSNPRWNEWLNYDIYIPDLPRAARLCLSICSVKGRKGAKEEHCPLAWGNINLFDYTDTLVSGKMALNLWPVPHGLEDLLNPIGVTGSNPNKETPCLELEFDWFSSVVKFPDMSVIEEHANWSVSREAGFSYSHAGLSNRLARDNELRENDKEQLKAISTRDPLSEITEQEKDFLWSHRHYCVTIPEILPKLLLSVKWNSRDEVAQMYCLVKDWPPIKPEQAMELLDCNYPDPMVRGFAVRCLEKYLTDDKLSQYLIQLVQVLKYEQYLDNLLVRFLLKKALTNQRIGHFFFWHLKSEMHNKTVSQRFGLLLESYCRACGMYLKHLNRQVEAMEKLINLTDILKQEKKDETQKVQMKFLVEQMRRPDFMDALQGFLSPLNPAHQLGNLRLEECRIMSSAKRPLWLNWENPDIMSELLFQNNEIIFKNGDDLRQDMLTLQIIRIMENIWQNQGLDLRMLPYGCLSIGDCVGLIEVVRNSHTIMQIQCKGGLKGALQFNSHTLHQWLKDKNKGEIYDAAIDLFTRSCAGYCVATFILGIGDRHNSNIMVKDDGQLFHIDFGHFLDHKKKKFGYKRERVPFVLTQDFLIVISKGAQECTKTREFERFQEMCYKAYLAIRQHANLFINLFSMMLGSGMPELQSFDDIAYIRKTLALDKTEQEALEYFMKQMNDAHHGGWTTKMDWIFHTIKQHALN
T1 sequence (P27986 whole entry partner): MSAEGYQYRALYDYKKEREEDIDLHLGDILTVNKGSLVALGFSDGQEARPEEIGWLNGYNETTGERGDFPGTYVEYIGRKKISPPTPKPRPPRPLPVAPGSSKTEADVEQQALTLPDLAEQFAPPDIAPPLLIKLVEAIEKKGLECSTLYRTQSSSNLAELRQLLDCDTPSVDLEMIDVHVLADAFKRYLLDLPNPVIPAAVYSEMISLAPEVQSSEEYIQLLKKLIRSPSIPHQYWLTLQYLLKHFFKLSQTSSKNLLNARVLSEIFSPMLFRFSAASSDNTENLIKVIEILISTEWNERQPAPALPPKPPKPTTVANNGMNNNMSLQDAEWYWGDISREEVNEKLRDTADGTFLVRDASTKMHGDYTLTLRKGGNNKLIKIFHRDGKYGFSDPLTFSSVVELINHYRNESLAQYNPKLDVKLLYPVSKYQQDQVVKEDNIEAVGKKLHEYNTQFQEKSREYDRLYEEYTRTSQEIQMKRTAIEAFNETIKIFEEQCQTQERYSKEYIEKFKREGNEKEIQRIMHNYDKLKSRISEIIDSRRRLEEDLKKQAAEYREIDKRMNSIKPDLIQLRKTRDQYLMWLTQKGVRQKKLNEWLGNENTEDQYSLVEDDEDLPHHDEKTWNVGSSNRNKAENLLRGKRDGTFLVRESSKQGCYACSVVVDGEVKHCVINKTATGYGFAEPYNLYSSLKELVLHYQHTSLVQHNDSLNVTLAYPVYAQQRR

Regarding `CS(=O)(=O)Nc1cc(-c2ccc3nccc(N4CCN(Cc5ccc6c(c5)OCO6)CC4)c3c2)cnc1Cl` [Example 84, N-(5-(4-(4-(1,3-benzodioxol-5-ylmethyl)-1-piperazinyl)-6-quinolinyl)-2-chloro-3-pyridinyl)methanesulfonamide], the results for the IC50 in assay [1] and in assay [3] were 0.289 µM and 0.0487 µM, respectively. The molecule further showed a Ki in assay [2] of 0.0225 µM.

In the case of `CCN(CCC#N)c1ccnc2ccc(-c3cnc(Cl)c(NS(C)(=O)=O)c3)cc12` [Example 78, N-(2-chloro-5-(4-((2-cyanoethyl)(ethyl)amino)-6-quinolinyl)-3-pyridinyl)methanesulfonamide], the 50% inhibitory concentration (IC50) in assay [1] was determined as 0.193 µM; in assay [3] it was 0.0117 µM. The molecule further gave a Ki in assay [2] of 0.0276 µM.

Take `CS(=O)(=O)Nc1cc(-c2ccc3nccc(N4CCC(c5ccccc5)CC4)c3c2)cnc1Cl` [Example 82, N-(2-chloro-5-(4-(4-phenyl-1-piperidinyl)-6-quinolinyl)-3-pyridinyl)methanesulfonamide]: the IC50 in assay [1] is 0.364 µM; in assay [3], 0.0167 µM. This molecule came in with a Ki in assay [2] of 0.0052 µM.

Regarding `CC(c1ccccc1)N1CCN(c2ccnc3ccc(-c4cnc(Cl)c(NS(C)(=O)=O)c4)cc23)CC1` (stereo not drawn) [Example 83, N-(2-chloro-5-(4-(4-(1-phenylethyl)-1-piperazinyl)-6-quinolinyl)-3-pyridinyl)methanesulfonamide], the IC50 amounted to 0.758 µM in assay [1] and 0.0821 µM in assay [3]. The Ki in assay [2] is 0.0136 µM.

With `C[C@@H]1CN(c2ccnc3ccc(-c4cnc(Cl)c(NS(C)(=O)=O)c4)cc23)C[C@H](C)O1` [Example 103, N-(2-chloro-5-(4-((2R,6S)-2,6-dimethyl-4-morpholinyl)-6-quinolinyl)-3-pyridinyl)methanesulfonamide], the IC50 came out at 0.0556 µM in assay [1] and 0.0102 µM in assay [3]. The Ki in assay [2] stood at 0.0032 µM.
